Where “and” joins values, the source holds several entries; their conditions need not be identical. Equal entries are not always repeated.
Tested on: 24-26-month-old male C57BL/6 mice
Test: Skeletal muscle aging model, BML-260 treatment
Assay type: in vivo, mouse
Set-up: Area / Feret / Feret, Average / Area, Average: unit not given here
Settings: for Area / Feret: listed as BML
Experimental: To assess DUSP22 pharmacological targeting, BML-260 was treated to 24–26-month-old male C57BL/6 mice as follows: (1) vehicle alone (5% DMSO + 5% tween 80) and (2) 5 mg/kg BML-260 (n = 5 per group). Mice were treated via IP delivery every 24 h for 4 weeks and then assessed for skeletal muscle function and condition.
Grip strength was measured using the BIO-GS3 device (Bioseb, FL, USA). Mice were placed onto the grid with all four paws attached and gently pulled backwards to measure the grip strength until the grid was released. The maximum grip value, used to represent muscle force, was calculated using 3 trials with an interval of 30 s.
Muscle fatigue was measured the previously described protocol (Chiu et al, [2018]), with two different models using the Rotarod. One was the constant model and the other was the accelerating model that is inherent in the rotarod device. In brief, the mice were accommodated to training before the commencement of the fatigue task using an accelerating rotarod (Ugo Basile, Italy). The mice were trained at a constant speed of 13 rpm for 15 min. After a recovery period of 15 min, the mice were placed on the rotarod adjusted to accelerate from 13 to 25 rpm in 3 min for 15 min. 24 h later, the muscle fatigue test was carried out with speeds ramping from 13 to 25 rpm in 3 min, and maintained at 25 rpm for a 30 min interval. Latency to fall off the rotarod was measured for each mouse. A fatigued mouse was classified as falling off 4 times within a 1 min period, which also terminated the test.
Mice were anesthetized using ketamine (22 mg/kg; Yuhan, Republic of Korea) and xylazine (10 mg/kg; Bayer, Republic of Korea) in saline by IP injection. The quadriceps, gastrocnemius, soleus and TA muscles were then dissected and weighed. For histological analysis, the muscles were fixed by overnight incubation with 4% paraformaldehyde in PBS pH 7.4 at 4 °C. Paraffin sectioning and H&E staining were provided by the Animal Housing Facility, Gwangju Institute of Science and Technology, Republic of Korea (5 µm muscle sections using a Thermo Scientific HistoStar (Thermofisher). H&E staining was carried out with a kit (Merck, Germany)). For immunohistochemistry, TA muscle sections were permeabilized for 15 min (PBS with 0.5% Triton X-100), blocked for 1 h (5% BSA) and incubated with the primary antibody overnight at 4 °C (a list of primary and secondary antibodies used in this study are provided in Appendix Tables S4 and S5, respectively). After washing with PBS 3 times for 5 min, the sections were incubated with the secondary antibody at RT for 1 h. The nuclei were counterstained with DAPI in ProLong™ Gold Antifade Mountant (Invitrogen, P36935). Digital images were acquired with Leica DM 2500 (Leica Microsystems). Cross sectional area (CSA) and fiber size distribution was measured using the NIH imaging software Image J 64. To CSA and size distribution of different fiber types was calculated in 4 muscle section as follows: type 2 A: 30–40 fibers measured; type 2B: at least 100 fibers measured; type 2X: 30–40 fibers measured.

[1] = 5 mg/kg IP every 24 h for 4 weeks
[2] = S10.B, group average of 3 animals
[3] = S10.B, individual measurements, animal BML 1
[4] = S10.B, mean per animal (BML 1, BML4, BML5)

O=C(O)c1ccc(N2C(=O)C(=Cc3ccccc3)SC2=S)cc1 (stereo in doubt) [BML-260]
CSA and Feret's diameter of type 2A, 2B and 2X myofibers, TA and gastrocnemius [1]: increased | DUSP22 levels in the TA muscle, western blot [1]: reduced DUSP22 levels | body weight [1]: not significantly affected | expression of PGC-1α, qPCR [1]: increased | expression of atrogin-1 and MuRF-1 in the TA muscle, qPCR [1]: reduced | expression of myostatin, qPCR [1]: reduced | grip strength mean value [1]: increased by BML-260 treatment but did not reach statistical significance | latency to fall in the rotarod test [1]: statistically increased | mass of quadriceps, gastrocnemius, TA and soleus muscles [1]: increased the mean mass value of the quadriceps, gastrocnemius, TA and soleus muscles, and reached statistical significance for the TA and gastrocnemius muscles | proportion of slow type 1 myofibers [1]: did not significantly affect | Area, Average [2]: 2003.72 | Feret, Average [2]: 60.0894 | Area [3]: 2289.78 and 2476.44 and 2826.67 and 1960.89 and 2172.44 and 1594.67 and 2152.89 and 2090.67 and 1617.78 and 2085.33 and 2567.11 | Feret [3]: 75.248 and 68.56 and 66.573 and 63.175 and 60.296 and 56.506 and 57.366 and 56.056 and 52.173 and 66.306 and 72.271 | Area [4]: 2166.79 and 2165.89 and 1678.47 | Feret [4]: 63.1391 and 63.015 and 54.114 | DUSP22 expression, western blot quantification, Average (TA of aged mice (Fig EV4A), Young average = 1): 0.2806 | DUSP22 expression, western blot quantification (TA of aged mice (Fig EV4A), Young average = 1, individual animals): 0.2303 and 0.3985 and 0.213 | increase of grip strength (aged skeletal muscle): > 20%

Source: publication PMC12162873, “Modulating phosphatase DUSP22 with BML-260 ameliorates skeletal muscle wasting via Akt independent JNK-FOXO3a repression” (EMBO Molecular Medicine, 2025)
